{
  "source": "patent US10632106B2",
  "about": "“Methods of cancer treatment with 2-(1′H-Indole-3′-carbonyl)-thiazole-4-carboxylic acid methyl ester” (Ariagen, Inc., priority 2009, dated 2020)",
  "type_in_all_cases": "in vivo",
  "key": {"[1]": {"assay": "ITE toxicity monitoring, 7-day i.p. dosing of ITE nano-suspension in C57BL/6 mice", "conditions": "for #LYMPH / #NEUT / ALT / AST / BUN / NEUT / PLT / TP / WBC: group mean", "procedure": "ITE nano-suspension was prepared by milling ITE powder in water containing 1% CMC-Na (sodium carboxymethyl cellulose), 0.5% SLS (sodium lauryl sulfate), 0.085% PVP K90 (polyvinylpyrrolidone K90), and 0.2% Benzoate with a Media Wet Milling Machine (Dispermat SL-nano, WAB Willy A. Bachofen A G, Muttenz, Switzerland) until reached a desired size range. The particle size was determined by a Laser Diffraction Particle Size Analyzer (MS2000, Malvern Instruments, Worcestershire, UK). The parameters of particle sizes were determined as D10 (diameter of 10% of particles)=67 nm, D50=114 nm, and D90=207 nm. The nano-suspension thus prepared was stored at 4° C. until use.\nFemale C57BL/6 mice, 6 to 8 week old, were randomly assigned to 4 dose groups (0, 20, 100, and 500 mg/kg b.w.) each with 6 animals. ITE nano-suspension was administered by i.p. injection once daily for 7 consecutive days. Mortality, clinical signs, body weight, and food consumption were recorded. Data on hematology (3 of 6 mice) and serum chemistry (the other 3 of 6 mice) were collected. TK (Toxicokinetic) parameters were determined as described in Example 1 and plasma levels of ITE at both 1 and 3 hr. post dosing on day 1, 3, and 7 were measured. A gross observation of major organs at necropsy was conducted."}, "[2]": {"tested_on": "SGC7901 (human stomach cancer) xenografts", "assay": "SGC7901 xenograft growth inhibition", "conditions": "ITE 100-200 mg/kg i.p. once daily", "procedure": "(§1) All the procedures related to animal handling, care, and the treatment in the study were performed following guidelines of KeyGen Biotechn Co., Ltd. (Nanjing, China), a contract research organization we hired, based on the guidance of the Association for Assessment and Accreditation of Laboratory Animal Care (AAALAC). Animals were checked for any effects of tumor growth and drug treatment on normal behavior such as mobility, food and water consumption, body weight gain/loss (bodyweights were measured every two days), eye/hair matting, and any other abnormal effect. Death and observed clinical signs were recorded. Individual animals with a tumor volume exceeding 3,000 mm^3 or animals of a group with a mean tumor volume exceeding 2,000 mm^3 were euthanized. In addition, animals showing signs of severe distress and/or pain or losing the capability of accessing adequate food or water were humanely sacrificed.\n(§2) Cell lines HCT116, Siha, MFC were cultured in DMEM medium (high glucose) supplemented with 10% fetal bovine serum (FBS), SW116 and T24 in RPMI-1640 medium with 10% FBS, M14 and A375 in DMEM medium (high glucose) with 10% calf serum (CS), SGC7901 and Ketr-3 in RPMI-1640 medium with 10% CS, and CFPAC-1 in IMDM medium with 10% FBS. All of the cells were cultured, in the presence of 100 U/ml penicillin and 100 μg/ml streptomycin, at 37° C. in an atmosphere of 5% CO2 in air. […] The cells growing in an exponential phase were harvested and counted for tumor inoculation. Cell lines 5180 and U14 were maintained in ascites (peritoneal cavity fluid) of mice and were harvested and counted for tumor inoculation. […]\n(§3) Tumor volume was measured every two days in two dimensions using a caliper and the volume was calculated with a formula of: V=0.5 a×b^2, where a and b are the long and short diameter (in mm) of a tumor, respectively. […] The TGD was calculated as: TGD=T−C, where T was the time (in days) required for tumors in a drug treated group to reach a predetermined mean tumor volume and C the time (in days) in the control group to reach the same volume. […]"}, "[3]": {"tested_on": "Ketr-3 (human kidney cancer) xenografts", "assay": "Ketr-3 xenograft growth inhibition", "conditions": "ITE 100-200 mg/kg i.p. once daily", "procedure": "as §1, §2, §3"}, "[4]": {"conditions": "20 mg/kg ITE nano-suspension i.p. once daily 7 days"}, "[5]": {"conditions": "100 mg/kg ITE nano-suspension i.p. once daily 7 days"}, "[6]": {"conditions": "500 mg/kg ITE nano-suspension i.p. once daily 7 days"}, "[7]": {"conditions": "ITE nano-suspension 20, 100, 500 mg/kg b.w. i.p. once daily for 7 days"}, "[8]": {"conditions": "end of therapy relative to beginning"}},
  "note": "Marks after values point to notes of the source that are not given here.",
  "data": [
    {"smiles": "COC(=O)c1csc(C(=O)c2c[nH]c3ccccc23)n1", "note": "[ITE, 2-(1′H-indole-3′-carbonyl)-thiazole-4-carboxylic acid methyl ester]", "values": [
      {"measurement": "BUN raised over vehicle", "setting": "[1]; 20 mg/kg (low dose) group", "result": 1.4, "unit": "folds"},
      {"measurement": "#LYMPH", "setting": "[1]; [4]", "result": "3.35 ×10^9 cells"},
      {"measurement": "#NEUT", "setting": "[1]; [4]", "result": "1.08 ×10^9 cells"},
      {"measurement": "ALT", "setting": "[1]; [4]", "result": 43.2, "unit": "U/L"},
      {"measurement": "AST", "setting": "[1]; [4]", "result": 118.1, "unit": "U/L"},
      {"measurement": "BUN", "setting": "[1]; [4]", "result": "10.5* mmol/L"},
      {"measurement": "NEUT", "setting": "[1]; [4]", "result": 23.3, "unit": "%"},
      {"measurement": "PLT", "setting": "[1]; [4]", "result": "435 ×10^9 cells"},
      {"measurement": "TP", "setting": "[1]; [4]", "result": 39.5, "unit": "g/L"},
      {"measurement": "WBC", "setting": "[1]; [4]", "result": "4.68 ×10^9 cells"},
      {"measurement": "WBC raised", "setting": "[1]; 100 mg/kg (mid) group", "result": 2.6, "unit": "folds"},
      {"measurement": "#LYMPH", "setting": "[1]; [5]", "result": "3.5 ×10^9 cells"},
      {"measurement": "#NEUT", "setting": "[1]; [5]", "result": "3.62 ×10^9 cells"},
      {"measurement": "ALT", "setting": "[1]; [5]", "result": 33.2, "unit": "U/L"},
      {"measurement": "AST", "setting": "[1]; [5]", "result": 131.6, "unit": "U/L"},
      {"measurement": "BUN", "setting": "[1]; [5]", "result": 7.3, "unit": "mmol/L"},
      {"measurement": "NEUT", "setting": "[1]; [5]", "result": 46.6, "unit": "%"},
      {"measurement": "PLT", "setting": "[1]; [5]", "result": "668 ×10^9 cells"},
      {"measurement": "TP", "setting": "[1]; [5]", "result": 40.8, "unit": "g/L"},
      {"measurement": "WBC", "setting": "[1]; [5]", "result": "10.77* ×10^9 cells"},
      {"measurement": "ALT raised over vehicle control", "setting": "[1]; 500 mg/kg (high dose) group", "result": 3.2, "unit": "folds"},
      {"measurement": "TP (total protein) raised over vehicle control", "setting": "[1]; 500 mg/kg (high dose) group", "result": 1.2, "unit": "folds"},
      {"measurement": "AST raised over vehicle control", "setting": "[1]; 500 mg/kg (high dose) group, not significant", "result": 1.8, "unit": "folds"},
      {"measurement": "WBC raised", "setting": "[1]; 500 mg/kg (high) group, not significant", "result": 2.0, "unit": "folds"},
      {"measurement": "#LYMPH", "setting": "[1]; [6]", "result": "4.81 ×10^9 cells"},
      {"measurement": "#NEUT", "setting": "[1]; [6]", "result": "3.4 ×10^9 cells"},
      {"measurement": "ALT", "setting": "[1]; [6]", "result": "74.5* U/L"},
      {"measurement": "AST", "setting": "[1]; [6]", "result": 151.2, "unit": "U/L"},
      {"measurement": "BUN", "setting": "[1]; [6]", "result": 9.1, "unit": "mmol/L"},
      {"measurement": "NEUT", "setting": "[1]; [6]", "result": 40.5, "unit": "%"},
      {"measurement": "PLT", "setting": "[1]; [6]", "result": "1075 ×10^9 cells"},
      {"measurement": "TP", "setting": "[1]; [6]", "result": "49.5* g/L"},
      {"measurement": "WBC", "setting": "[1]; [6]", "result": "8.38 ×10^9 cells"},
      {"measurement": "body weight loss", "setting": "[1]; [7]", "result": "no significant body weight loss"},
      {"measurement": "mortality", "setting": "[1]; [7]", "result": "no mortality observed except that one mouse in 20 mg/kg b.w. (low dose) group died"},
      {"measurement": "food consumption", "setting": "[1]; all 3 ITE treated groups, day 1 of the study", "result": "dramatic decrease in food consumption"},
      {"measurement": "major organ inspection at necropsy", "setting": "[1]; all the ITE treated groups", "result": "No abnormality was observed"},
      {"measurement": "TGD", "setting": "[2]; TGD at Vol. 1,000", "result": 4, "unit": "days"},
      {"measurement": "TGI (%)", "setting": "[2]; TGI at day 18, TGI=(1−ΔT/ΔC)×100%", "result": 50, "unit": "%"},
      {"measurement": "Weight Loss", "setting": "[2]; [8]", "result": 12, "unit": "%"},
      {"measurement": "TGD", "setting": "[3]; TGD at Vol. 500", "result": 9, "unit": "days"},
      {"measurement": "TGI (%)", "setting": "[3]; TGI at day 28, TGI=(1−ΔT/ΔC)×100%", "result": 74, "unit": "%"},
      {"measurement": "Weight Loss", "setting": "[3]; [8]", "result": 13, "unit": "%"}
    ]}
  ]
}
